How the values were obtained:
TNFα = molecular target: T1, TNFα (Homo sapiens, UniProt P01375); assay: FA-based competition with FITC-labeled C1 for binding to TNFα; settings: 2 μM TNFα, 100 nM C1-NNNK(FITC), 0-15 μM competitor
T1 construct: ybbR tag (13 aa) (N); made in house; host or cells: Escherichia coli
Procedure: (§1) FIG. 6A is a graph showing the competition for binding to TNFα (2 μM) between C1-74-2 (0-15 μM) and C1-NNNK(FITC) (100 nM) as monitored by FA. FIG. 6B is a graph showing binding of infliximab-HRP conjugate to immobilized TNFα in the absence and presence of C1-74-2 (0, 2, or 6 μM).
[formula] where Y is the measured anisotropy at a given TNFα concentration x; L is the bicyclic peptide concentration; Qb/Qf is the correction fact for dye-protein interaction; Amax is the maximum anisotropy when all the peptides are bound to TNFα, while Amin is the minimum anisotropy. Competition experiments were performed by incubating 100 nM Asn-Asn-Asn-Lys(FITC)-labeled anticachexin C1 (Table 1), 2 μM of TNFα, and varying concentrations of unlabeled competitor peptide (0-20 μM) in the above buffer for 2 h. The FA values were plotted against the competitor peptide concentration to determine the IC50 values.

[1] = system: TNFα-induced activation of NF-κB; assay: NF-κB luciferase reporter assay in NF-κB reporter (Luc)-HEK293 cells; assay type: cell-based; settings: 6 μM peptide, 5 ng/mL TNFα
Procedure: NF-κB reporter (Luc)-HEK293 cells 30 (BPS Bioscience, San Diego, Calif.) were seeded at a density of 5,000 cells per well in Greiner white 96-well cell culture microplates in 50 μL of growth medium (DMEM+10% FBS+1% P/S). Cells were incubated overnight at 37° C. in the presence of 5% CO2. TNFα (5 ng/mL) and different concentrations of compound C1-74-2 (0-6 μM) were incubated for 1 h in 5 μL of growth medium (DMEM+5% FBS+1% P/S) at 37° C. in the presence of 5% CO2. The growth medium in the plate was replaced with 50 μL of fresh medium (DMEM+5% FBS+1% P/S). The pre-incubated TNFα and peptide mixture (5 μL) was added into each well, with 5 μL of growth medium only added as the control. The cells were incubated at 37° C. with 5% CO2 for 2 h. Fifty μL of ONE-Step™ Luciferase Assay reagent (BPS Bioscience, San Diego, Calif.) was added into each well. The whole plate was incubated at room temperature for 5 min and the luminescence generated was measured on a Tecan M1000 Pro microplate reader.
WEHI-13VAR cells were treated with TNFα in the presence of increasing concentrations of C1-74-2 (0-20 μM) and the cell lysates were probed with antibodies specific for phosphorylated JNK (p-JNK) as well as total JNK. […]

[2] = system: TNFα-induced JNK phosphorylation; assay: Immunoblot of TNFα-induced JNK phosphorylation in WEHI-13VAR cells; assay type: cell-based; settings: TNFα with increasing peptide concentrations (0-20 μM); total JNK unchanged
Procedure: WEHI-13VAR cells were cultured in full growth media (RPMI, 5% FBS, 1% Pen/Strep) in 12-well plates to reach 80% confluence. TNFα (5 ng/mL final concentration) and varying concentrations of peptide inhibitor (0-6 μM) were pre-incubated in 0.5 mL of the growth medium for 30 min in the CO2 incubator. The mixture was then used to treat the cells at 37° C. and in the presence of 5% CO2. After 1.5 h, the solution was removed and the cells were washed with cold DPBS twice. The cells were lysed in 50 μL of lysis buffer (50 mM Tris, pH 7.4, 150 mM NaCl, 1% NP-40, and 5% glycerol) containing a protease inhibitor cocktail (Complete mini, Roche, product number 04693159001) and a phosphatase inhibitor cocktail (PhosSTOP, Roche, product number 04906845001). After incubation on ice for 30 min, the cell lysate was centrifuged at 15,000 rpm for 10 min in a microcentrifuge. An equal volume of 2×SDS-loading buffer was added to the supernatant. The total cellular proteins were separated by SDS-PAGE and transferred electrophoretically to a nitrocellulose membrane, which was subsequently immunoblotted using anti-JNK and anti-p-JNK Thr183/Tyr185 antibodies (both from Santa Cruz Biotechnology). The same samples were also separated on a different SDS-PAGE gel and stained by Coomassie brilliant blue to check the sample loading in all lanes. […]

[3] = molecular target: T2, TNFα (infliximab binding) (Homo sapiens, UniProt P01375); assay: Binding of infliximab-HRP conjugate to immobilized TNFα; settings: 0, 2 or 6 μM peptide
T2 construct: ybbR tag (13 aa) (N); made in house; host or cells: Escherichia coli
T2 sequence (P01375 77-233 limits assumed): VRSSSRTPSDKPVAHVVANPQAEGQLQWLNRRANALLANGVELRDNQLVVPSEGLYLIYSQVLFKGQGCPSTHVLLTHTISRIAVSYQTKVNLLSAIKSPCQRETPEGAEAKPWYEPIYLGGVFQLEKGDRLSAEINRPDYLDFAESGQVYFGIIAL
Procedure: as §1
The four peptides were tested for inhibition of the TNFα-TNFR1 interaction by using the ELISA assay.

T1 sequence (P01375 77-233 limits assumed): as above

CC(=O)[C@@H]1CCCN(C(=O)[C@@H](Cc2c[nH]cn2)NC(=O)C(N)C(C)C)C1 (stereo partly shown) [Compound C1-74-2]
Competition with FITC-labeled C1 for binding to TNFα (TNFα): competed with FITC-labeled C1 for binding to TNFα | Reduction of TNFα-induced luciferase activity [1]: ~50% | p-JNK level [2]: decreased with the C1-74-2 concentration | Inhibition of infliximab binding to surface-immobilized TNFα [3]: inhibited the binding of anti-TNFα antibody infliximab to a surface-immobilized TNFα in a concentration-dependent manner

Source: patent US10913773B2, “Bicyclic peptidyl inhibitor of tumor necrosis factor-alpha” (Ohio State Innovation Foundation, priority 2016, dated 2021)
